The results in this text go back to patent US12649709B2, “Naphthoquinone-based chalcone derivatives and uses thereof” (priority 2020, dated 2026).

Test [1] has as its system Autobioluminescent Human Epithelial Kidney cells (HEK-293). Put plainly: Cellular metabolic activity, autobioluminescent kidney cells. The class given is cell-based. The conditions noted are these: FIG. 7A; Hematin:RLS3 1:1,000; 0.5 pM-5 nM RLS3; 14-hour period post-exposure; kidney cell model. On the procedure:
(§1) Autobioluminescent Human Epithelial Kidney cells (HEK-293, 490 Biotech) and Human Liver cells (Hep-G2, 490 Biotech) and Human primary astrocytes (490 Biotech) were seeded at 10,000 kidney cells/well, or 50,000 liver cells/well, in 96-well tissue culture treated plates (Falcon) in growth media. The growth media consists of the following: DMEM (Hyclone), 10% heat-inactivated FBS (Gibco), 1% Sodium Pyruvate (HyClone), 1% antibiotic/antimyotic (Hyclone) and 100 μg G418/ml (Gibco). Cells were grown for 2 days prior to treatment with dimenadione derivative compounds. The media was aspirated and cells were washed with 1×PBS (Fisher, SH30256.01) and treated with serial dilutions ranging from 5 fM to 5 μM (1 mL/well) dimenadione derivative compounds. The treated cells were incubated at 37° C. and 5% CO2 for x hours. At each concentration, bioluminescence was measured with either a BMG Labtech clarioSTAR plate reader or an IVIS CCD camera system. Any changes in cell bioluminescence were recorded as photons/per well. […] The relative change in light output was measured between each treatment and the vehicle control at each timepoint. The amount of light being made is proportional to metabolic activity (as measured by FMNH2 availability, which provides the same information as a traditional ATP content assay (i.e., CellTiter Glo). […]

In test [2] the test system is Human Liver cells (Hep-G2). Put plainly: Cellular metabolic activity, autobioluminescent liver cells. The class given is cell-based. The conditions noted are these: for concentration-dependent effect on cellular metabolism over time: 24 h. The procedure:
Autobioluminescent Human Epithelial Kidney cells (HEK-293, 490 Biotech) and Human Liver cells (Hep-G2, 490 Biotech) and Human primary astrocytes (490 Biotech) were seeded at 10,000 kidney cells/well, or 50,000 liver cells/well, in 96-well tissue culture treated plates (Falcon) in growth media. The growth media consists of the following: DMEM (Hyclone), 10% heat-inactivated FBS (Gibco), 1% Sodium Pyruvate (HyClone), 1% antibiotic/antimyotic (Hyclone) and 100 μg G418/ml (Gibco). Cells were grown for 2 days prior to treatment with dimenadione derivative compounds. […] The treated cells were incubated at 37° C. and 5% CO2 for x hours. At each concentration, bioluminescence was measured with either a BMG Labtech clarioSTAR plate reader or an IVIS CCD camera system. Any changes in cell bioluminescence were recorded as photons/per well. The replicates were averaged, and all conditions were normalized to background light detection (medium-only control wells). The vehicle-only controls were compared to the untreated controls to make sure there was not change in metabolic activity due to the solvent. All other treatments were then compared to the vehicle control. The relative change in light output was measured between each treatment and the vehicle control at each timepoint. The amount of light being made is proportional to metabolic activity (as measured by FMNH2 availability, which provides the same information as a traditional ATP content assay (i.e., CellTiter Glo).
5 fM to 5 μM (10 μL/well) of individual compounds solubilized in DMSO were incubated with cells in 96-well plates. The reference compound was DMSO-only vehicle control, at a final concentration of 0.1% DMSO. Importantly maximally effective concentrations of the compound, in the mid-picomolar to mid-nanomolar range, increased metabolic activity by as much as 2.5-fold. This observation aligns with the core hypothesized mechanism of the compound which has been designed to integrate into the mitochondrial ETC and improve energy production in the form of ATP in mitochondria. Increased energy production is reflected in overall cellular metabolism of the cells.

Another test concerns primary astrocytes. Briefly: Cellular metabolic activity, autobioluminescent neuronal (astrocyte) cells. The class given is cell-based, murine. The conditions noted are these: 24 hour period. The procedure:
as §1

Setting [3] is: FIG. 8A, complexed with Hematin 1:1,000, 0.5 nM-5 μM, 24-hour period post-exposure, liver cells.
Setting [4] is: complexed with hematin (FIG. 8A), liver cells.
Setting [5] is: without hematin complexation (FIG. 8B), 1 pM-10 μM, liver cells.

`COc1cc(C)c(OC)c2ccccc12` [RLS3, 1,4-Dimethoxy-2-Methylnaphthalene]: the “metabolic activity (bioluminescence) over time” value is listed as “increase in metabolic activity over time” in test [1]; “increase in metabolic activity over time” in test [2] (FIG. 7B, Hematin:RLS3 1:1,000, 500 pM-5 μM RLS3, 14 h period post-exposure, liver cell model as printed); “increase in metabolic activity over time” in test [2] (setting [3]). In addition, the “concentration-dependent effect on cellular metabolism over time” value in test [2] (setting [4]) is reported as “seemed to show a concentration-dependent effect”; in test [2] (setting [5]) it was “did not”.
Turning to `COc1c(C)c(C=O)c(OC)c2ccccc12` [RLS4, 1,4-Dimethoxy-3-Methyl-2-Naphthaldehyde], the “metabolic activity (bioluminescence) over time” value in test [2] (setting [3]) is “increase in metabolic activity over time”. Moreover, the results for the “concentration-dependent effect on cellular metabolism over time” value in test [2] (setting [4]) and in test [2] (setting [5]) were “seemed to show a concentration-dependent effect” and “did not”, respectively.
As to `COc1c(C)c(/C=C/C(=O)/C=C(O)/C=C/c2c(C)c(OC)c3ccccc3c2OC)c(OC)c2ccccc12` [RLS5, (1E,4Z,6E)-1,7-Bis(1,4-Dimethoxy-3-methylnaphthalen-2-yl)-5-Hydroxyhepta-1,4,6-trien-3-one], the “effect on cellular metabolism” value in the test with primary astrocytes (FIG. 9A, 100 pM and 1 nM RLS5 with Hematoporphyrin complexation (1:1000)) is given as “slight concentration dependent effect”; with primary astrocytes (FIG. 9B, 100 pM and 1 nM RLS5 without Hematoporphyrin complexation), “slight concentration dependent effect”.
